{"source": "patent US6355799B1", "about": "“Substituted benzene compounds, process for their preparation, and herbicidal and defoliant compositions containing them” (ISK Americas Incorporated, priority 1997, dated 2002)", "type_in_all_cases": "in vivo", "key": {"[1]": {"system": "field corn (Zea mays L., var. Dekalb 535, CORN)", "experiment": "Post-emerge test, crop safety", "settings": "post-emerge, 14 days after application, rating scale 0-100", "method_in_brief": "(§1)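 Applied at 15–1000 g ai/ha from acetone in 187 l/ha spray volume. Post-emergence applications included 0.25% v/v non-ionic surfactant and reached plants sown 8–21 days before. Pre-emergence applications were incorporated by surface watering. Efficacy or crop damage was rated on a 0–100 scale after 14 days.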"}, "[2]": {"system": "upland rice (Oryza sp., var. Tebonnet, RICE)", "experiment": "Post-emerge test, crop safety", "settings": "post-emerge, 14 days after application, rating scale 0-100", "method_in_brief": "as §1"}, "[3]": {"system": "redroot pigweed (Amaranthus retroflexus, AMARE)", "experiment": "Pre-emerge test, greenhouse herbicide activity screening", "settings": "rated 14 days after application, 0 = no damage, 100 = complete death", "method_in_brief": "(§2)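 Sandy loam pots; pre-emerge: sown 1 d pre-spray, surface-watered after, then bottom-watered. Post-emerge: sown 8–21 d before, 2–3 leaf stage, + 0.25% v/v NIS, bottom-watered. Acetone, 187 l/ha track spray, 15–1000 g ai/ha. 0–100 injury score, day 14.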"}, "[4]": {"system": "field corn (Zea mays L., var. Dekalb 535, CORN)", "experiment": "Pre-emerge test, crop safety", "settings": "rated 14 days after application, 0 = no damage, 100 = complete death", "method_in_brief": "as §2"}, "[5]": {"system": "upland rice (Oryza sp., var. Tebonnet, RICE)", "experiment": "Pre-emerge test, crop safety", "settings": "rated 14 days after application, 0 = no damage, 100 = complete death", "method_in_brief": "as §2"}, "[6]": {"system": "barnyardgrass (Echinochloa crus-galli, ECHCG)", "experiment": "Pre-emerge test, greenhouse herbicide activity screening", "settings": "rated 14 days after application, 0 = no damage, 100 = complete death", "method_in_brief": "as §1"}, "[7]": {"system": "large crabgrass (Digitaria sanguinalis, DIGSA)", "experiment": "Pre-emerge test, greenhouse herbicide activity screening", "settings": "rated 14 days after application, 0 = no damage, 100 = complete death", "method_in_brief": "as §1"}, "[8]": {"system": "johnsongrass (Sorghum halepense, SORHA)", "experiment": "Pre-emerge test, greenhouse herbicide activity screening", "settings": "rated 14 days after application, 0 = no damage, 100 = complete death", "method_in_brief": "as §1"}, "[9]": {"system": "velvetleaf (Abutilon theophrasti, ABUTH)", "experiment": "Pre-emerge test, greenhouse herbicide activity screening", "settings": "rated 14 days after application, 0 = no damage, 100 = complete death", "method_in_brief": "as §1"}, "[10]": {"system": "sicklepod (Cassia obtusifolia, CASOB)", "experiment": "Pre-emerge test, greenhouse herbicide activity screening", "settings": "rated 14 days after application, 0 = no damage, 100 = complete death", "method_in_brief": "as §1"}, "[11]": {"system": "lambsquarters (Chenopodium album, CHEAL)", "experiment": "Pre-emerge test, greenhouse herbicide activity screening", "settings": "rated 14 days after application, 0 = no damage, 100 = complete death", "method_in_brief": "as §1"}, "[12]": {"system": "green foxtail (Setaria viridis, SETVI)", "experiment": "Pre-emerge test, greenhouse herbicide activity screening", "settings": "rated 14 days after application, 0 = no damage, 100 = complete death", "method_in_brief": "as §1"}, "[13]": {"system": "common ragweed (Ambrosia artemisizfolia L., AMBEL)", "experiment": "Pre-emerge test, greenhouse herbicide activity screening", "settings": "rated 14 days after application, 0 = no damage, 100 = complete death", "method_in_brief": "as §1"}, "[14]": {"system": "ivyleaf morningglory (Ipomoea hederacea, IPOHE)", "experiment": "Pre-emerge test, greenhouse herbicide activity screening", "settings": "rated 14 days after application, 0 = no damage, 100 = complete death", "method_in_brief": "as §1"}, "[15]": {"system": "barnyardgrass (Echinochloa crus-galli, ECHCG)", "experiment": "Post-emerge test, greenhouse herbicide activity screening", "settings": "post-emerge, 14 days after application, rating scale 0-100", "method_in_brief": "(§3)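 Fourteen days after spraying, crop and weed injury was graded visually from 0, no effect, to 100, every plant dead. Test substances were dissolved in acetone and applied at 15–1000 g ai/ha with a flat-fan nozzle. Application was either pre-emergence, one day after sowing, or post-emergence at the 2–3 leaf stage.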"}, "[16]": {"system": "large crabgrass (Digitaria sanguinalis, DIGSA)", "experiment": "Post-emerge test, greenhouse herbicide activity screening", "settings": "post-emerge, 14 days after application, rating scale 0-100", "method_in_brief": "as §3"}, "[17]": {"system": "johnsongrass (Sorghum halepense, SORHA)", "experiment": "Post-emerge test, greenhouse herbicide activity screening", "settings": "post-emerge, 14 days after application, rating scale 0-100", "method_in_brief": "as §3"}, "[18]": {"system": "velvetleaf (Abutilon theophrasti, ABUTH)", "experiment": "Post-emerge test, greenhouse herbicide activity screening", "settings": "post-emerge, 14 days after application, rating scale 0-100", "method_in_brief": "as §3"}, "[19]": {"system": "sicklepod (Cassia obtusifolia, CASOB)", "experiment": "Post-emerge test, greenhouse herbicide activity screening", "settings": "post-emerge, 14 days after application, rating scale 0-100", "method_in_brief": "as §3"}, "[20]": {"system": "lambsquarters (Chenopodium album, CHEAL)", "experiment": "Post-emerge test, greenhouse herbicide activity screening", "settings": "post-emerge, 14 days after application, rating scale 0-100", "method_in_brief": "as §3"}, "[21]": {"system": "green foxtail (Setaria viridis, SETVI)", "experiment": "Post-emerge test, greenhouse herbicide activity screening", "settings": "post-emerge, 14 days after application, rating scale 0-100", "method_in_brief": "as §3"}, "[22]": {"system": "redroot pigweed (Amaranthus retroflexus, AMARE)", "experiment": "Post-emerge test, greenhouse herbicide activity screening", "settings": "post-emerge, 14 days after application, rating scale 0-100", "method_in_brief": "as §3"}, "[23]": {"system": "common ragweed (Ambrosia artemisizfolia L., AMBEL)", "experiment": "Post-emerge test, greenhouse herbicide activity screening", "settings": "post-emerge, 14 days after application, rating scale 0-100", "method_in_brief": "as §3"}, "[24]": {"system": "ivyleaf morningglory (Ipomoea hederacea, IPOHE)", "experiment": "Post-emerge test, greenhouse herbicide activity screening", "settings": "post-emerge, 14 days after application, rating scale 0-100", "method_in_brief": "as §3"}}}
{"molecule": "COc1c(Cl)cc(F)c(-n2c(=O)cc(C(F)(F)F)n(C)c2=O)c1NC(=O)c1c(F)cccc1F", "note": "[2-47]", "values": [{"measurement": "phytotoxicity rating CORN", "setting": "[1]; 63 g ai/ha", "value": 10}, {"measurement": "phytotoxicity rating CORN", "setting": "[1]; 250 g ai/ha", "value": 15}, {"measurement": "phytotoxicity rating RICE", "setting": "[2]; 63 g ai/ha", "value": 20}, {"measurement": "phytotoxicity rating RICE", "setting": "[2]; 250 g ai/ha", "value": 45}, {"measurement": "Pre-emerge Herbicidal Activity, phytotoxicity rating (0-100), AMARE", "setting": "[3]; 63 g ai/ha", "value": 100}, {"measurement": "Pre-emerge Herbicidal Activity, phytotoxicity rating (0-100), AMARE", "setting": "[3]; 250 g ai/ha", "value": 100}, {"measurement": "Pre-emerge phytotoxicity rating (0-100), crop damage, CORN", "setting": "[4]; 63 g ai/ha", "value": 40}, {"measurement": "Pre-emerge phytotoxicity rating (0-100), crop damage, CORN", "setting": "[4]; 250 g ai/ha", "value": 99}, {"measurement": "Pre-emerge phytotoxicity rating (0-100), crop damage, RICE", "setting": "[5]; 63 g ai/ha", "value": 70}, {"measurement": "Pre-emerge phytotoxicity rating (0-100), crop damage, RICE", "setting": "[5]; 250 g ai/ha", "value": 95}, {"measurement": "Pre-emerge Herbicidal Activity, phytotoxicity rating (0-100), ECHCG", "setting": "[6]; 63 g ai/ha", "value": 0}, {"measurement": "Pre-emerge Herbicidal Activity, phytotoxicity rating (0-100), ECHCG", "setting": "[6]; 250 g ai/ha", "value": 99}, {"measurement": "Pre-emerge Herbicidal Activity, phytotoxicity rating (0-100), DIGSA", "setting": "[7]; 63 g ai/ha", "value": 100}, {"measurement": "Pre-emerge Herbicidal Activity, phytotoxicity rating (0-100), DIGSA", "setting": "[7]; 250 g ai/ha", "value": 100}, {"measurement": "Pre-emerge Herbicidal Activity, phytotoxicity rating (0-100), SORHA", "setting": "[8]; 63 g ai/ha", "value": 60}, {"measurement": "Pre-emerge Herbicidal Activity, phytotoxicity rating (0-100), SORHA", "setting": "[8]; 250 g ai/ha", "value": 90}, {"measurement": "Pre-emerge Herbicidal Activity, phytotoxicity rating (0-100), ABUTH", "setting": "[9]; 63 g ai/ha", "value": 100}, {"measurement": "Pre-emerge Herbicidal Activity, phytotoxicity rating (0-100), ABUTH", "setting": "[9]; 250 g ai/ha", "value": 100}, {"measurement": "Pre-emerge Herbicidal Activity, phytotoxicity rating (0-100), CASOB", "setting": "[10]; 63 g ai/ha", "value": 90}, {"measurement": "Pre-emerge Herbicidal Activity, phytotoxicity rating (0-100), CASOB", "setting": "[10]; 250 g ai/ha", "value": 100}, {"measurement": "Pre-emerge Herbicidal Activity, phytotoxicity rating (0-100), CHEAL", "setting": "[11]; 63 g ai/ha", "value": 100}, {"measurement": "Pre-emerge Herbicidal Activity, phytotoxicity rating (0-100), CHEAL", "setting": "[11]; 250 g ai/ha", "value": 100}, {"measurement": "Pre-emerge Herbicidal Activity, phytotoxicity rating (0-100), SETVI", "setting": "[12]; 63 g ai/ha", "value": 100}, {"measurement": "Pre-emerge Herbicidal Activity, phytotoxicity rating (0-100), SETVI", "setting": "[12]; 250 g ai/ha", "value": 100}, {"measurement": "Pre-emerge Herbicidal Activity, phytotoxicity rating (0-100), AMBEL", "setting": "[13]; 63 g ai/ha", "value": 50}, {"measurement": "Pre-emerge Herbicidal Activity, phytotoxicity rating (0-100), AMBEL", "setting": "[13]; 250 g ai/ha", "value": 100}, {"measurement": "Pre-emerge Herbicidal Activity, phytotoxicity rating (0-100), IPOHE", "setting": "[14]; 63 g ai/ha", "value": 100}, {"measurement": "Pre-emerge Herbicidal Activity, phytotoxicity rating (0-100), IPOHE", "setting": "[14]; 250 g ai/ha", "value": 100}, {"measurement": "phytotoxicity rating ECHCG", "setting": "[15]; 63 g ai/ha", "value": 0}, {"measurement": "phytotoxicity rating ECHCG", "setting": "[15]; 250 g ai/ha", "value": 10}, {"measurement": "phytotoxicity rating DIGSA", "setting": "[16]; 63 g ai/ha", "value": 0}, {"measurement": "phytotoxicity rating DIGSA", "setting": "[16]; 250 g ai/ha", "value": 0}, {"measurement": "phytotoxicity rating SORHA", "setting": "[17]; 63 g ai/ha", "value": 0}, {"measurement": "phytotoxicity rating SORHA", "setting": "[17]; 250 g ai/ha", "value": 0}, {"measurement": "phytotoxicity rating ABUTH", "setting": "[18]; 63 g ai/ha", "value": 100}, {"measurement": "phytotoxicity rating ABUTH", "setting": "[18]; 250 g ai/ha", "value": 100}, {"measurement": "phytotoxicity rating CASOB", "setting": "[19]; 63 g ai/ha", "value": 70}, {"measurement": "phytotoxicity rating CASOB", "setting": "[19]; 250 g ai/ha", "value": 100}, {"measurement": "phytotoxicity rating CHEAL", "setting": "[20]; 63 g ai/ha", "value": 80}, {"measurement": "phytotoxicity rating CHEAL", "setting": "[20]; 250 g ai/ha", "value": 100}, {"measurement": "phytotoxicity rating SETVI", "setting": "[21]; 63 g ai/ha", "value": 20}, {"measurement": "phytotoxicity rating SETVI", "setting": "[21]; 250 g ai/ha", "value": 30}, {"measurement": "phytotoxicity rating AMARE", "setting": "[22]; 63 g ai/ha", "value": 90}, {"measurement": "phytotoxicity rating AMARE", "setting": "[22]; 250 g ai/ha", "value": 100}, {"measurement": "phytotoxicity rating AMBEL", "setting": "[23]; 63 g ai/ha", "value": 50}, {"measurement": "phytotoxicity rating AMBEL", "setting": "[23]; 250 g ai/ha", "value": 90}, {"measurement": "phytotoxicity rating IPOHE", "setting": "[24]; 63 g ai/ha", "value": 70}, {"measurement": "phytotoxicity rating IPOHE", "setting": "[24]; 250 g ai/ha", "value": 100}]}
